Tests used:
[1] = tested on: vesicular stomatitis virus (VSV); type: cell-based; details: HeLa cells
Raft liposomes = test: Disrafter-Liposome Raftophile Assay (D-LRA); details: test compound 100 μM
Procedure: The raftophilicity of certain fluorescent indicators varies with the raft content of liposomes which, in turn, is determined by their lipid composition and the presence of raft modulators.
The D-LRA assay detects two extremes of raft modulation, disrafting and raft augmentation. % disrafting below 0 results from an actual increase in partition of the indicator, caused by an increased raft content of the liposomes. […] Significance can be ascribed to values above 25% (disrafting) and below −25% (disrafters by “augmentation”).
Liposomes (defined below) with a raft content of about 50% are incubated with potential disrafters. The change in raft content is then determined with an indicator (standard raftophile).
Raft liposomes: (35% cholesterol, 10.5% shingomyelin (SM), 3.5% GM1, 25.5% phosphatidylethanolamine (PE) and 25.5% phosphatidylcholine (PC))
Non-raft liposomes: N liposomes (50% PE, PC)
Liposomes are prepared by spreading lipids dissolved in tert. butanol on a glass surface at 50° C. in a rotary evaporator rinsed with nitrogen. After 6 h desiccation the lipids are taken up in 40 mM octyl-β-D-glucoside (OG) to a concentration of 1 mg/ml and dialysed for 24 h against 2 changes of 5 I PBS with 25 g Biobeads (Amberlite XAD-2) at 22° C.
Indicators are fluorescent compounds which preferentially partition into rafts. These are selected to represent different structural classes, and different excitation/emission wavelengths. This is important when raft modulators are tested which interfere with indicator fluorescence.
Perylene is a raftophilic compound which embeds completely into membranes.
GS-96 is a raftophilic adduct of the general structure cholesterol-linker-rhodamine-peptide (only the cholesterol is membrane-inserted).
N and R Liposomes were diluted into PBS to a final lipid concentration of 200 μg/ml and 100 μl aliquots preincubated 30 min 37° C. on a thermomixer (1000 rpm).
1 μl of DMSO (solvent controls) and the test compound stock solutions (all 10 mM in DMSO, except where noted) were added and incubated 2 h as above.
1 μl indicator in DMSO was then added (final indicator concentrations GS-96 0.2 μM, perylene 2 μM) and incubation continued for 1 h as above
Incubation mixes were centrifuged 20 min in the TLA-100 rotor of the Beckman Optima centrifuge at 400 000 g (37° C.).

PR8 virus = test: microbe, parasite or virus in culture; type: cell-based, influenza virus
RBL-2H3 cells = test: Degranulation assay (β-hexosaminidase release); type: cell-based, rat
Influenza virus = test: Virus budding assay (influenza assay); type: cell-based; details: MDCK cells
HIV-1 strain NL4-3 = test: HIV assay: infection of HeLa TZM cells; type: cell-based; details: Human immunodeficiency virus 1, NL43, vs solvent
[2] = unidentified influenza virus, PR8, MDCK, read-out: inhibition of PR8 virus replication
[3] = Rattus norvegicus, RBL-2H3, 25 μM, vs solvent vehicle

Row | Compound | Disrafting Activity [%] (Raft liposomes; perylene as marker) | inhibition at 20 µM (PR8 virus; [2]) | inhibition at 100 µM (PR8 virus; [2]) | other results
1 | CCCCCCCCCCCCC/C=C/[C@@H](O)[C@H](CO)NC(=O)COCCOC [Compound 10a] | 99.2% | – | – | effect on viral infection in the VSV counterscreen [1]: no inhibitory effect on viral infection at all
2 | CCCCCCCCCCCCC/C=C/[C@@H](O)[C@H](CO)NC(=O)[C@H]1CC[C@H](C(C)(C)C)CC1 [Compound 10e, N-(trans-4-tert-butylcyclohexylcarbonyl)-D-erythro-sphingosine] | – | – | – | inhibition at 10 µM (PR8 virus; [2]): 21%
3 | CCCCCCCCCCCCCC=CC(O)C(CO)NC(=O)COCCOCCOCCOCCOC [Compound 10g, N-(3,6,9,12,15-Pentoxahexadecanoyl)-D-erythro-sphingosine] | 89.3% | – | – | inhibition of PR8 virus replication (PR8 virus; 20 μM, MDCK cells, vs solvent vehicle): 70%; activity in the mast cell degranulation assay (words) (RBL-2H3 cells): strongly inhibitory; inhibition of the release of β-hexosaminidase (RBL-2H3 cells; 25 μM, vs solvent vehicle): 65%
4 | CCCCCCCCCCCCC/C=C/[C@@H](O)[C@H](CO)NC(=O)COCCOC [Compound 10h, N-(3,6-Dioxaheptanoyl)-D-erythro-sphingosine] | 72.2% | 75% | – | result in the virus budding assay (Influenza virus): particularly good results; inhibition at 25 µM (RBL-2H3 cells; [3]): 71%
5 | CCCCCCCCCCCCC/C=C/[C@@H](OC)[C@H](CO)NC(=O)CCCCC [Compound 10k] | 98.6% | 59.3% | – | –
6 | CCCCCCCCCCCCC/C=C/[C@@H](OC)[C@@H](N)CO [Compound 10l, 3-Methylated D-erythro-sphingosine] | – | – | – | inhibition at 25 µM (RBL-2H3 cells; [3]): 84%
7 | CCCCCCCCCCCCC/C=C/[C@@H](O)[C@H](CO)NCCCCCCCCCCCCCCCC [Compound 10n] | 94.8% | – | 34.7% | –
8 | CCCCCCCCCCCCC/C=C/[C@H](O)[C@H](CO)NCCCCCCCCCCCCCCCC [Compound 10o] | 91.0% | – | 40.8% | –
9 | CCCCCCCCCCCCC/C=C/[C@@H](O)[C@H](CO)NC(=O)/C=C(\C)CC/C=C(\C)CCC=C(C)C [Compound 10p] | – | – | 39.2% | Disrafting Activity [%] (Raft liposomes; GS-96 as marker): 58.9%
10 | CCCCCCCCCCCCC/C=C/[C@@H](OC)[C@H](CO)NC(=O)/C=C(\C)CC/C=C(\C)CCC=C(C)C [Compound 10q] | – | – | 61.6% | –
11 | CCCCCCCCCCCCC/C=C/[C@@H](O)[C@H](CO)NC(=O)COC [Compound 10u] | 97.0% | 70.3% | – | inhibition at 25 µM (RBL-2H3 cells; [3]): 63%
12 | CCCCCCCCCCCCC/C=C/[C@@H](OC)[C@H](CO)NC(=O)COCCOCCOCCOCCOC [Compound 10v] | 96.1% | 87.4% | – | inhibition of viral reproduction (PR8 virus; influenza): very effective inhibition of the viral reproduction; inhibition at 12.5 µM (RBL-2H3 cells; Rattus norvegicus, RBL-2H3, 12.5 μM, vs solvent vehicle): 74%; inhibition at 20 µM (HIV-1 strain NL4-3): 45%
13 | CCCCCCCCCCCCC/C=C/[C@@H](O)[C@H](CO)NC(=O)CCOCCOCCOCCOCCN [Compound 10w] | 53.1% | – | – | inhibition at 25 µM (PR8 virus; [2]): 50.3%; inhibition at 6.25 µM (RBL-2H3 cells; Rattus norvegicus, RBL-2H3, 6.25 μM, vs solvent vehicle): 69%; inhibition at 20 µM (HIV-1 strain NL4-3): 52%

From patent publication US7629385B2, “Sphingolipid-derived pharmaceutical compositions” (priority 2004, dated 2009)
